Measurements as given in PMC9926234, “Iterative computational design and crystallographic screening identifies potent inhibitors targeting the Nsp3 macrodomain of SARS-CoV-2” (Proceedings of the National Academy of Sciences of the …, 2023).
“And” between values parts separate entries of the source, which are not always exact repeats. Identical values can stand only once. Like-named read-outs stand apart in the source and are kept apart here.

Columns and labels:
SARS-CoV-2 NSP3 Mac1 [1] = target: T1, SARS-CoV-2 NSP3 Mac1 (Severe acute respiratory syndrome coronavirus 2, UniProt P0DTD1); test: biochemical; assay type: binding; details: for IC50: read-out: IC50; for Ki: read-out: Ki***
SARS-CoV-2 NSP3 Mac1 [2] = test: Overall hit call (binding in crystallographic soaking or the HTRF-based binding assay)
Text: Supplement pnas.2212931120.sd01.xlsx, sheet "Compound Summary" | column: HIT*

SARS-CoV-2 NSP3 Mac1 [3] = target: T1, SARS-CoV-2 NSP3 Mac1; assay type: binding; details: for Refined occupancy: ligand occupancy after refinement (phenix.refine)
SARS-CoV-2 NSP3 Mac1 [4] = target: T1, SARS-CoV-2 NSP3 Mac1; assay type: binding; design: contains a conserved macrodomain enzyme (Mac1); details: for Spearman est (compound concentration vs apparent Tm): DSF dose responsiveness, 1 µM nsp3 mac1, adj p given
Outline: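 ΔTma values are thermal shifts relative to a co-located DMSO-only control, read with 5 µM Fluorescent Yellow dye. Each compound was tested in triplicate over seven concentrations (two-fold steps, top 1,000 or 100 μM). Spearman correlation of concentration versus ΔTma tested whether the shift was dose-responsive.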

[5] = HTRF ADPr-conjugated peptide displacement
[6] = PanDDA event map background density correction, crystal soak, compound concentration 100 mM
[7] = PanDDA event map, 1 minus background density correction, crystal soaking of Mac1
[8] = ligand modeled in the crystal structure, crystal soak, compound concentration 100 mM
[9] = Ki estimation from HTRF-derived IC50, Cheng-Prusoff, peptide 400nM, Kd 2.68µM
[10] = PanDDA 1-BDC value of the event, crystal soak, compound concentration 100 mM, per dataset
[11] = crystal soak, compound concentration 100 mM, per dataset
[12] = HTRF ADPr-peptide displacement from SARS-CoV-2 Mac1
[13] = overall hit flag: binding in crystallographic soaking or the HTRF-based binding assay
[14] = maximal thermal upshift vs DMSO control

SMILES: O=C(O)CC(NC(=O)c1cc(F)cc2[nH]cnc12)c1ccc(Br)cc1 (centres unmarked) [Z3722]
- IC50 (SARS-CoV-2 NSP3 Mac1 [1]; [5]): 26.2 µM
- Ki (SARS-CoV-2 NSP3 Mac1 [1]): 22.8 µM
- HIT* (SARS-CoV-2 NSP3 Mac1 [2]): Y

SMILES: O=C1OCCN1C1CCN(c2ncnc3[nH]c4cc(F)ccc4c23)C1 (centres unmarked) [Z5107]
- HIT* (SARS-CoV-2 NSP3 Mac1 [2]): Y

SMILES: O=C(O)Cc1cccc(CNC(=O)c2ncnc3ccsc23)c1 [Z5712]
- HIT* (SARS-CoV-2 NSP3 Mac1 [2]): Y

SMILES: O=C(O)c1csc(CCNC(=O)c2cc3[nH]cnc3cc2F)n1 [Z5740]
- 1-BDC (SARS-CoV-2 NSP3 Mac1 [3]; [6]): 0.1
- 1-BDC (PanDDA) (SARS-CoV-2 NSP3 Mac1 [3]; [7]): 0.1
- Modeled? (SARS-CoV-2 NSP3 Mac1 [3]; [8]): TRUE
- Refined occupancy (SARS-CoV-2 NSP3 Mac1 [3]; crystal soaking of Mac1): 20
- HIT* (SARS-CoV-2 NSP3 Mac1 [2]): Y

SMILES: CNc1cnc(C(=O)N2CC(c3noc(O)n3)C2)cn1.O=C(O)C(F)(F)F [Z6567]
- 1-BDC (SARS-CoV-2 NSP3 Mac1 [3]; [6]): 0.31
- 1-BDC (PanDDA) (SARS-CoV-2 NSP3 Mac1 [3]; [7]): 0.31
- Modeled? (SARS-CoV-2 NSP3 Mac1 [3]; [8]): TRUE
- Refined occupancy (SARS-CoV-2 NSP3 Mac1 [3]; crystal soaking of Mac1): 62
- HIT* (SARS-CoV-2 NSP3 Mac1 [2]): Y

SMILES: O=C(O)Cc1ccc(CNC(=O)c2ccnc3ccsc23)cc1 [Z6625]
- HIT* (SARS-CoV-2 NSP3 Mac1 [2]): Y

SMILES: COc1cncc(C(=O)NCCNC(=O)c2ncccc2O)c1 [Z6634]
- HIT* (SARS-CoV-2 NSP3 Mac1 [2]): Y

SMILES: O=C(NC1C=CC(C(=O)O)C1)c1ncnc2sccc12 (centres unmarked) [Z6645]
- IC50 (SARS-CoV-2 NSP3 Mac1 [1]; [5]): 69.4 µM
- Ki (SARS-CoV-2 NSP3 Mac1 [1]): 60.4 µM
- HIT* (SARS-CoV-2 NSP3 Mac1 [2]): Y

SMILES: CCNc1ncc(C(=O)NCCn2cnc(C(=O)O)c2)s1 [Z6684]
- 1-BDC (PanDDA) (SARS-CoV-2 NSP3 Mac1 [3]; [7]): 0.1
- 1-BDC (SARS-CoV-2 NSP3 Mac1 [3]; PanDDA event map, crystal soak, Compound_concentration 100 mM, Echo_dispense_volume 40 nl): 0.1
- PanDDA hit? (SARS-CoV-2 NSP3 Mac1 [3]; crystal soak, Compound_concentration 100 mM, Echo_dispense_volume 40 nl, PanDDA run (background map) dmso_34, nohits_35 or nohits_62): TRUE
- Modeled? (SARS-CoV-2 NSP3 Mac1 [3]; ligand modeled, crystal soak, Compound_concentration 100 mM, Echo_dispense_volume 40 nl): TRUE
- Refined occupancy (SARS-CoV-2 NSP3 Mac1 [3]; crystal soaking of Mac1): 20
- HIT* (SARS-CoV-2 NSP3 Mac1 [2]): Y

SMILES: Cn1ncc2c(=O)[nH]c(CCC(=O)N3CC=C(C(=O)O)C3)nc21 [Z6689]
- 1-BDC (SARS-CoV-2 NSP3 Mac1 [3]; [6]): 0.17
- 1-BDC (PanDDA) (SARS-CoV-2 NSP3 Mac1 [3]; [7]): 0.17
- Modeled? (SARS-CoV-2 NSP3 Mac1 [3]; [8]): TRUE
- Refined occupancy (SARS-CoV-2 NSP3 Mac1 [3]; crystal soaking of Mac1): 34
- HIT* (SARS-CoV-2 NSP3 Mac1 [2]): Y

SMILES: CC(=O)Nc1nc(C)c(S(=O)(=O)Nc2ccc(C)c(C#N)c2)s1 [Z6707]
- HIT* (SARS-CoV-2 NSP3 Mac1 [2]): Y

SMILES: Cc1oc(C(N)=O)cc1S(=O)(=O)Nc1ccc(Br)c(C#N)c1 [Z6708]
- HIT* (SARS-CoV-2 NSP3 Mac1 [2]): Y

SMILES: Cn1ccn2c(CCNC(=O)[C@H]3C[C@H]3C(=O)O)nnc2c1=O [Z6744]
- 1-BDC (SARS-CoV-2 NSP3 Mac1 [3]; [6]): 0.3
- 1-BDC (PanDDA) (SARS-CoV-2 NSP3 Mac1 [3]; [7]): 0.3
- Modeled? (SARS-CoV-2 NSP3 Mac1 [3]; [8]): TRUE
- Refined occupancy (SARS-CoV-2 NSP3 Mac1 [3]; crystal soaking of Mac1): 60
- HIT* (SARS-CoV-2 NSP3 Mac1 [2]): Y

SMILES: Cc1oc(C(N)=O)cc1S(=O)(=O)Nc1cnc(Cl)c(C#N)c1 [Z6746]
- HIT* (SARS-CoV-2 NSP3 Mac1 [2]): Y

SMILES: O=C(O)c1ccc(F)c(CNC(=O)c2ccc3[nH]ccc3c2)c1 [Z7647]
- HIT* (SARS-CoV-2 NSP3 Mac1 [2]): Y

SMILES: CC(C)NC(=O)Nc1ccc(C(=O)NC2c3cccc(O)c3CC2C(=O)O)cc1 (centres unmarked) [Z8539_0046]
- binding to Mac1 in the HTRF assay, result in words (SARS-CoV-2 NSP3 Mac1 [1]): did not substantially change binding affinity
- IC50 (SARS-CoV-2 NSP3 Mac1 [1]; HTRF): 0.8 µM
- Ki (SARS-CoV-2 NSP3 Mac1 [1]; [9]): 0.7 µM
- 1-BDC (SARS-CoV-2 NSP3 Mac1 [3]; [10]): 0.23
- 1-BDC (SARS-CoV-2 NSP3 Mac1 [3]; [7]): 0.21
- PanDDA hit? (SARS-CoV-2 NSP3 Mac1 [3]; [11]): TRUE
- Modeled? (SARS-CoV-2 NSP3 Mac1 [3]; ligand modeled from this dataset, compound concentration 100 mM, Echo dispense volume 40 or 80 nl): TRUE
- Refined occupancy (SARS-CoV-2 NSP3 Mac1 [3]; crystal soaking of Mac1): 42
- HIT* (SARS-CoV-2 NSP3 Mac1 [3]; true hit = binding in crystallographic soaking or the HTRF-based binding assay): Y
- Spearman est (compound concentration vs apparent Tm) (SARS-CoV-2 NSP3 Mac1 [4]): 0.49
- DSF max dTma (SARS-CoV-2 NSP3 Mac1 [4]; maximal thermal upshift): 6.41 ˚C

SMILES: CO[C@@H]1CN(c2ncnc3[nH]c4cc(F)ccc4c23)C[C@@H](CO)O1 [Z8973]
- HIT* (SARS-CoV-2 NSP3 Mac1 [2]): Y

SMILES: COC(=O)C1(CO)CCN(c2ncnc3[nH]c4cc(F)ccc4c23)C1 (centres unmarked) [Z9556]
- HIT* (SARS-CoV-2 NSP3 Mac1 [2]): Y

SMILES: O=C(O)CC1CN(c2ncnc3[nH]ccc23)CCO1 (centres unmarked) [Z9572]
- IC50 (SARS-CoV-2 NSP3 Mac1 [1]; [12]): 227 µM and 234 µM
- IC50 (SARS-CoV-2 NSP3 Mac1 [1]; HTRF, several values in a cell are separate determinations): 227 µM
- Ki (SARS-CoV-2 NSP3 Mac1 [1]; [9]): 197 µM
- 1-BDC (SARS-CoV-2 NSP3 Mac1 [3]; [7]): 0.09
- Modeled? (SARS-CoV-2 NSP3 Mac1 [3]; ligand modeled in structure, crystal soak, Compound_concentration 100 mM): TRUE
- Refined occupancy (SARS-CoV-2 NSP3 Mac1 [3]; crystal soaking of Mac1): 18
- HIT* (SARS-CoV-2 NSP3 Mac1 [3]; [13]): Y
- Spearman est (compound concentration vs apparent Tm) (SARS-CoV-2 NSP3 Mac1 [4]): 0.62
- DSF max dTma (SARS-CoV-2 NSP3 Mac1 [4]; [14]): 0.66 °C

SMILES: O=C(NC1c2ccccc2CC1C(=O)O)c1ccc(NC(=O)C2CC2)cc1 (centres unmarked) [Z9604]
- IC50 (SARS-CoV-2 NSP3 Mac1 [1]; [12]): > 250 µM
- 1-BDC (SARS-CoV-2 NSP3 Mac1 [3]; [10]): 0.04
- 1-BDC (SARS-CoV-2 NSP3 Mac1 [3]; [7]): 0.04
- PanDDA hit? (SARS-CoV-2 NSP3 Mac1 [3]; [11]): TRUE
- Modeled? (SARS-CoV-2 NSP3 Mac1 [3]; ligand modeled in the crystal structure, crystal soak, compound concentration 100 mM, per dataset): TRUE
- Refined occupancy (SARS-CoV-2 NSP3 Mac1 [3]; crystal soaking of Mac1): 8
- HIT* (SARS-CoV-2 NSP3 Mac1 [3]; [13]): Y
- Spearman est (compound concentration vs apparent Tm) (SARS-CoV-2 NSP3 Mac1 [4]): 0.76
- DSF max dTma (SARS-CoV-2 NSP3 Mac1 [4]; [14]): 0.79 °C
